# Experimental data as given in patent publication US20090105270A1, “Kinase inhibition and anticancer therapy” (priority 2007, published 2009).
# Columns and labels:
# [1] = biological target: Arg(h) (Homo sapiens, UniProt P42684); test: Upstate kinase activity inhibition assay Arg(h); conditions: 40 min, read-out: percentage of enzyme activity that remains
# [2] = biological target: T1, PASK(h) (Homo sapiens, UniProt Q96RG2); test: Upstate kinase activity inhibition assay PASK(h); type: biochemical; conditions: 40 min; read-out: percentage of enzyme activity that remains
# T1 construct: purchased Upstate (KinaseProfiler service)
# [3] = biological target: Pim-1(h) (Homo sapiens, UniProt P11309); test: Upstate kinase activity inhibition assay Pim-1(h); type: biochemical; conditions: 40 min; read-out: percentage of enzyme activity that remains
# [4] = biological target: MEK1(h) (Homo sapiens, UniProt Q02750); test: Upstate kinase activity inhibition assay MEK1(h); conditions: 40 min, read-out: percentage of enzyme activity that remains
# [5] = biological target: MST3(h) (Homo sapiens, UniProt Q9Y6E0); test: Upstate kinase activity inhibition assay MST3(h)
# [6] = biological target: DAPK1(h) (Homo sapiens, UniProt P53355); test: Upstate kinase activity inhibition assay DAPK1(h); conditions: 40 min, read-out: percentage of enzyme activity that remains
# [7] = biological target: LOK(h) (Homo sapiens, UniProt O94804); test: Upstate kinase activity inhibition assay LOK(h)
# [8] = biological target: MSSK1(h) (Homo sapiens, UniProt Q9UPE1); test: Upstate kinase activity inhibition assay MSSK1(h); conditions: 40 min, read-out: percentage of enzyme activity that remains
# [9] = biological target: T2, IRAK4(h) (Homo sapiens, UniProt Q9NWZ3); test: Upstate kinase activity inhibition assay IRAK4(h); type: biochemical; conditions: 4 μM Compound E
# T2 construct: purchased Upstate (KinaseProfiler service)
# [10] = biological target: T3, ALK(h) (Homo sapiens, UniProt Q9UM73); test: Upstate kinase activity inhibition assay ALK(h); type: biochemical; conditions: 40 min; read-out: percentage of enzyme activity that remains
# T3 construct: purchased Upstate (KinaseProfiler service)
# [11] = biological target: Flt3(h) (Homo sapiens, UniProt P36888); test: Upstate kinase activity inhibition assay Flt3(h); conditions: 40 min, read-out: percentage of enzyme activity that remains
# [12] = biological target: STK33(h) (Homo sapiens, UniProt Q9BYT3); test: Upstate kinase activity inhibition assay STK33(h); conditions: 40 min, read-out: percentage of enzyme activity that remains
# [13] = biological target: GSK3α(h) (Homo sapiens, UniProt P49840); test: Upstate kinase activity inhibition assay GSK3α(h); conditions: 40 min, read-out: percentage of enzyme activity that remains
# [14] = biological target: T4, EGFR(L858R)(h) (Homo sapiens, UniProt P00533, L858R); test: Upstate kinase activity inhibition assay EGFR(L858R)(h); type: biochemical; conditions: 4 μM Compound E
# T4 construct: purchased Upstate (KinaseProfiler service)
# [15] = biological target: T5, Rse(h) (Homo sapiens, UniProt Q06418); test: Upstate kinase activity inhibition assay Rse(h); type: biochemical; conditions: 40 min; read-out: percentage of enzyme activity that remains
# T5 construct: purchased Upstate (KinaseProfiler service)
# [16] = biological target: T6, eEF-2K(h) (Homo sapiens, UniProt O00418); test: Upstate kinase activity inhibition assay eEF-2K(h); type: biochemical; conditions: 40 min; read-out: percentage of enzyme activity that remains
# T6 construct: purchased Upstate (KinaseProfiler service)
# [17] = biological target: ROCK-I(h) (Homo sapiens, UniProt Q13464); test: Upstate kinase activity inhibition assay ROCK-I(h); conditions: 40 min, read-out: percentage of enzyme activity that remains
# [18] = biological target: NEK7(h) (Homo sapiens, UniProt Q8TDX7); test: Upstate kinase activity inhibition assay NEK7(h); type: biochemical; conditions: 40 min; read-out: percentage of enzyme activity that remains
# [19] = biological target: TrkA(h) (Homo sapiens, UniProt P04629); test: Upstate kinase activity inhibition assay TrkA(h); conditions: 40 min, read-out: percentage of enzyme activity that remains
# [20] = biological target: TSSK1(h) (Homo sapiens, UniProt Q9BXA7); test: Upstate kinase activity inhibition assay TSSK1(h); conditions: 40 min, read-out: percentage of enzyme activity that remains
# [21] = biological target: Rsk2(h) (Homo sapiens, UniProt P51812); test: Upstate kinase activity inhibition assay Rsk2(h); conditions: 40 min, read-out: percentage of enzyme activity that remains
# [22] = biological target: MuSK(h) (Homo sapiens, UniProt O15146); test: Upstate kinase activity inhibition assay MuSK(h); conditions: 40 min, read-out: percentage of enzyme activity that remains
# [23] = biological target: T7, SGK(h) (Homo sapiens, UniProt O00141, S422D); test: Upstate kinase activity inhibition assay SGK(h); type: biochemical; conditions: 40 min; read-out: percentage of enzyme activity that remains
# T7 construct: purchased Upstate (KinaseProfiler service)
# [24] = biological target: ErbB4(h) (Homo sapiens, UniProt Q15303); test: Upstate kinase activity inhibition assay ErbB4(h); conditions: 40 min, read-out: percentage of enzyme activity that remains
# [25] = biological target: EphB2(h) (Homo sapiens, UniProt P29323); test: Upstate kinase activity inhibition assay EphB2(h)
# [26] = biological target: T8, SAPK3(h) (Homo sapiens, UniProt P53778); test: Upstate kinase activity inhibition assay SAPK3(h); type: biochemical; conditions: 40 min; read-out: percentage of enzyme activity that remains
# T8 construct: purchased Upstate (KinaseProfiler service)
# [27] = biological target: T9, CDK2/cyclinE(h) (Homo sapiens, UniProt P24941); test: Upstate kinase activity inhibition assay CDK2/cyclinE(h); type: biochemical; conditions: 4 μM Compound E
# T9 construct: purchased Upstate (KinaseProfiler service)
# [28] = biological target: RIPK2(h) (Homo sapiens, UniProt O43353); test: Upstate kinase activity inhibition assay RIPK2(h); conditions: 40 min, read-out: percentage of enzyme activity that remains
# [29] = biological target: PAK6(h) (Homo sapiens, UniProt Q9NQU5); test: Upstate kinase activity inhibition assay PAK6(h); conditions: 40 min, read-out: percentage of enzyme activity that remains
# [30] = biological target: T10, DYRK2(h) (Homo sapiens, UniProt Q92630); test: Upstate kinase activity inhibition assay DYRK2(h); type: biochemical; conditions: 40 min; read-out: percentage of enzyme activity that remains
# T10 construct: purchased Upstate (KinaseProfiler service)
# T10 sequence (Q92630 whole entry): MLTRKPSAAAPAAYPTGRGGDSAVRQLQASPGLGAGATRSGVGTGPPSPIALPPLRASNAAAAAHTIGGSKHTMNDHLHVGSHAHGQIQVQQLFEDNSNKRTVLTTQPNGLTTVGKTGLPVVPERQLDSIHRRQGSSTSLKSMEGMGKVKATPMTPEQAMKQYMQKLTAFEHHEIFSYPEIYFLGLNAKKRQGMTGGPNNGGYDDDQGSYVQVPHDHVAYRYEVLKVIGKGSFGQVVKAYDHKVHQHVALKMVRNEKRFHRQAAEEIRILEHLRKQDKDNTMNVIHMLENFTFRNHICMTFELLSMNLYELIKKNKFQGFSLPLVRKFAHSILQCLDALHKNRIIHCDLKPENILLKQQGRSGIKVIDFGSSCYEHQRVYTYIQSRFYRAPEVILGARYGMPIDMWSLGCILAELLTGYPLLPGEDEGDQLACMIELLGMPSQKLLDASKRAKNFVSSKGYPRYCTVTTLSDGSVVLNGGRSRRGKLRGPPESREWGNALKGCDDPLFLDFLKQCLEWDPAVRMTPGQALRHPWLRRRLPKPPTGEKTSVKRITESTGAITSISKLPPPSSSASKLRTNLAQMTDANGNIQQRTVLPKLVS
# MuSK(h), sequence (O15146 24-869): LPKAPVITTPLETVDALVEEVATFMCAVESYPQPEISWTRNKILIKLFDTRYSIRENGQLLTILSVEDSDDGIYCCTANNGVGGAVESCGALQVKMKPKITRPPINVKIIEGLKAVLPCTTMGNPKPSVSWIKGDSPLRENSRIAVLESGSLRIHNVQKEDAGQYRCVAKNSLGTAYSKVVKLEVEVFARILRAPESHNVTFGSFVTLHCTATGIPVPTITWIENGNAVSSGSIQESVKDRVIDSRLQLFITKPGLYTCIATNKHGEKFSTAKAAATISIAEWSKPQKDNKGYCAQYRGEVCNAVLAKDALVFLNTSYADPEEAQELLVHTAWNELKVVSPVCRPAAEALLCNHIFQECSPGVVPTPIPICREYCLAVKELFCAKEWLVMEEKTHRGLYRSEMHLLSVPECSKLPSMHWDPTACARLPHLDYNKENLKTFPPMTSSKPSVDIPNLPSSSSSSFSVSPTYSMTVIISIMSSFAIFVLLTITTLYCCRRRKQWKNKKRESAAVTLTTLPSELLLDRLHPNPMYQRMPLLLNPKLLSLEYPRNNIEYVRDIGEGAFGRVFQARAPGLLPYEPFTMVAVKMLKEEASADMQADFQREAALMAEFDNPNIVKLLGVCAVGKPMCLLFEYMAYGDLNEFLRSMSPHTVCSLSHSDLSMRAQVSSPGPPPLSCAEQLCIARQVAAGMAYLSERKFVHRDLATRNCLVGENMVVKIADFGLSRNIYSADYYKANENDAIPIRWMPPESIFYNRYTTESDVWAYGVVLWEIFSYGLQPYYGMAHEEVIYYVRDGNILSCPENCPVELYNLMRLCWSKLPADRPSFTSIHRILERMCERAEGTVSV
# TSSK1(h), sequence (Q9BXA7 whole entry): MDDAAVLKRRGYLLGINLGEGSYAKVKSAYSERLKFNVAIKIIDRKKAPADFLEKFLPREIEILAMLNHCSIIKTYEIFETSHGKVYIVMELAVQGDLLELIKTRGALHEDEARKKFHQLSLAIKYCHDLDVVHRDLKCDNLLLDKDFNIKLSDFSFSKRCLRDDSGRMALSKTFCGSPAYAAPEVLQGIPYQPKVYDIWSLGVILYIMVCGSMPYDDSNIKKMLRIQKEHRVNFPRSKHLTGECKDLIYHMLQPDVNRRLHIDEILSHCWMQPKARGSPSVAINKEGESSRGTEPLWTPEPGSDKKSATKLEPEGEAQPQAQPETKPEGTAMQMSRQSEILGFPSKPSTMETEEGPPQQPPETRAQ
# Rsk2(h), sequence (P51812 whole entry): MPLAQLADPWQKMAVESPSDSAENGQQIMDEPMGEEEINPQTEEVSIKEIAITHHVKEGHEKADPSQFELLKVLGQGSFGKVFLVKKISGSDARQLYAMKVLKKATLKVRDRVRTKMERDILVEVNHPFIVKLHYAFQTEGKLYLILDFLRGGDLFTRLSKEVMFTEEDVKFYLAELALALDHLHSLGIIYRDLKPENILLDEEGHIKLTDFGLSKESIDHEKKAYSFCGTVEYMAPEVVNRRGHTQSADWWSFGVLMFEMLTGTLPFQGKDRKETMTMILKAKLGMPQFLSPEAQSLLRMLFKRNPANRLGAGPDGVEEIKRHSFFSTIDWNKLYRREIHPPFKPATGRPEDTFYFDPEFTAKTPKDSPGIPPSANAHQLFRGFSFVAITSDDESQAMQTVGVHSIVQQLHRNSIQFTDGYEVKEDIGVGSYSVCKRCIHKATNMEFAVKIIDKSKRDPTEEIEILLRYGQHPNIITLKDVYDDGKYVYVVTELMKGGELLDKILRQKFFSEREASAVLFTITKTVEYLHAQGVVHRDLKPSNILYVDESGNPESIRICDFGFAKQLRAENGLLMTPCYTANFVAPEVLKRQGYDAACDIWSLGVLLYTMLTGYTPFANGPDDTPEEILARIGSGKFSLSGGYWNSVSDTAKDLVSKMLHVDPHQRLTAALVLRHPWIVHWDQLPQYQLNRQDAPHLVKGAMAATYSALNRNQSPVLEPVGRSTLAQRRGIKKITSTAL
# EphB2(h), sequence (P29323 19-1055): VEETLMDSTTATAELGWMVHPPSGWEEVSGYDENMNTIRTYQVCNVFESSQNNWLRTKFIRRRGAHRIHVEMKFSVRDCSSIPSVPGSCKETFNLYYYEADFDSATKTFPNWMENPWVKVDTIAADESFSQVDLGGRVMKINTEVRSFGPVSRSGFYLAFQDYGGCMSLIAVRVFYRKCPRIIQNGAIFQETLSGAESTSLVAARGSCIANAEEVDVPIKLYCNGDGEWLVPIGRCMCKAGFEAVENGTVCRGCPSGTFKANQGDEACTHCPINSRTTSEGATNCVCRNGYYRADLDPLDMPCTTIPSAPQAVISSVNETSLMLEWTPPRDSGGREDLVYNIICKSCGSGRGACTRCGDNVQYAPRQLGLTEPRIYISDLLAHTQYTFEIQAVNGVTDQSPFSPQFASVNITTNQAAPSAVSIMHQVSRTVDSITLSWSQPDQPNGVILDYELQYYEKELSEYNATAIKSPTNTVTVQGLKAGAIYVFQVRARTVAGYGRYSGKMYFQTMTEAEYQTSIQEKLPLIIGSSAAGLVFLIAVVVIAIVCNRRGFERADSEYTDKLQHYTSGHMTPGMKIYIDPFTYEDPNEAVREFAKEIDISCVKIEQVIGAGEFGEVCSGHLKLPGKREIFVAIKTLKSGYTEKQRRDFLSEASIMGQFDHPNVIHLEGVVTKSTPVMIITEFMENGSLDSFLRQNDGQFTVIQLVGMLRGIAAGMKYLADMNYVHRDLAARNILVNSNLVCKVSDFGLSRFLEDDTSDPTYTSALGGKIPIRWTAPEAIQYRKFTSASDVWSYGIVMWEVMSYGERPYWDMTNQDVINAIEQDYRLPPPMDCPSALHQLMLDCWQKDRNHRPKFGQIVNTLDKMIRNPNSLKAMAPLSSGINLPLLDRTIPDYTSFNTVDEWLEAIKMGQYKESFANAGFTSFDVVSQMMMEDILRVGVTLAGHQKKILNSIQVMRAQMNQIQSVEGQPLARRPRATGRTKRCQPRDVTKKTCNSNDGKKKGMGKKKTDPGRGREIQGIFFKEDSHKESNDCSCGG
# Flt3(h), sequence (P36888 27-993): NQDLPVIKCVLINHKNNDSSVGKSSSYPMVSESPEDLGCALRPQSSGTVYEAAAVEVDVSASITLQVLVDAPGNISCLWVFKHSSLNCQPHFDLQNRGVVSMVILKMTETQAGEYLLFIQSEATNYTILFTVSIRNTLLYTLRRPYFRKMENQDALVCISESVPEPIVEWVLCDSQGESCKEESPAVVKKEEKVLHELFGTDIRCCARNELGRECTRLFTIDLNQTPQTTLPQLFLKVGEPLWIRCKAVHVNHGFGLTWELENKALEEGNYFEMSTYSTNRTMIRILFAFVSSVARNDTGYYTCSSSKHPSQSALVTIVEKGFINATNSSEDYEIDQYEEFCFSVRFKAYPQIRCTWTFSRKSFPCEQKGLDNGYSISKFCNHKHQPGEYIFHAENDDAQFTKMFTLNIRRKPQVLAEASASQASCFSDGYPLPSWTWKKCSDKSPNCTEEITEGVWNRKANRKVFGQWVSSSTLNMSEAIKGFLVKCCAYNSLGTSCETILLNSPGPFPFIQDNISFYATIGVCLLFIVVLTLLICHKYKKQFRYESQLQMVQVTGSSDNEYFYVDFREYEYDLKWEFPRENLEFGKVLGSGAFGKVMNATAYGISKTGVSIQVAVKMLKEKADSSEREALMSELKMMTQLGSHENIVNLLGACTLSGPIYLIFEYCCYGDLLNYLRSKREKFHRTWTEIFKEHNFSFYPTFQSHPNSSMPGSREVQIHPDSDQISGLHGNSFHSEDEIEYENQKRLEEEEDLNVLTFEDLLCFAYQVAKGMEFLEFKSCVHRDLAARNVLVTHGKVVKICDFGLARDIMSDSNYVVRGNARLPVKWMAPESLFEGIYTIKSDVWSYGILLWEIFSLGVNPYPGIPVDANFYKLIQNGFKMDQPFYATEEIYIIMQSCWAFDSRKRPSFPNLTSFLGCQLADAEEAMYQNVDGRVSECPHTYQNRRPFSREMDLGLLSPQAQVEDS
# NEK7(h), sequence (Q8TDX7 whole entry): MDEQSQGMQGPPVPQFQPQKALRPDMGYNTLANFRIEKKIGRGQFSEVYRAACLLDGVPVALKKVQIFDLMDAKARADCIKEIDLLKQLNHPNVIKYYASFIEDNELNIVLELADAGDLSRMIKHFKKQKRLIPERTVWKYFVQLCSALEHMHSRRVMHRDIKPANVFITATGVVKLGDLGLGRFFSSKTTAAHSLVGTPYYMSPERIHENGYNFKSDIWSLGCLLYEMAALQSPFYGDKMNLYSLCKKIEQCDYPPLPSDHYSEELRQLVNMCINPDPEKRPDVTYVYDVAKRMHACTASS
compound,measurement,setting,value
"Cc1cc(Nc2cc(N3CCN(C)CC3)nc(Sc3ccc(NC(=O)C4CC4)cc3)n2)n[nH]1 [Compound E, Cyclopropane carboxylic acid {4-[4-(4-methyl-piperazin-1-yl)-6-(5-methyl-2H-pyrazol-3-ylamino)-pyrimidin-2-ylsulphanyl]-phenyl}-amide]",remaining activity at 0.2 µM,[1],8%
same,remaining activity at 4 µM,[1],-1%
same,remaining activity at 0.2 µM,[2],98%
same,remaining activity at 0.2 µM,[3],102%
same,remaining activity at 4 µM,[3],103%
same,remaining activity at 0.2 µM,[4],115%
same,remaining activity at 4 µM,[4],82%
same,percentage of enzyme activity that remains,[5]; 0.2 μM Compound E,97%
same,percentage of enzyme activity that remains,[5]; 4 μM Compound E,140%
same,remaining activity at 0.2 µM,[6],107%
same,remaining activity at 4 µM,[6],100%
same,percentage of enzyme activity that remains,[7]; 0.2 μM Compound E,92%
same,percentage of enzyme activity that remains,[7]; 4 μM Compound E,37%
same,remaining activity at 0.2 µM,[8],110%
same,remaining activity at 4 µM,[8],108%
same,percentage of enzyme activity that remains,[9],90%
same,remaining activity at 0.2 µM,[10],70%
same,remaining activity at 4 µM,[10],58%
same,remaining activity at 0.2 µM,[11],21%
same,remaining activity at 4 µM,[11],7%
same,remaining activity at 0.2 µM,[12],112%
same,remaining activity at 4 µM,[12],110%
same,remaining activity at 0.2 µM,[13],106%
same,remaining activity at 4 µM,[13],102%
same,percentage of enzyme activity that remains,[14],77%
same,remaining activity at 0.2 µM,[15],94%
same,remaining activity at 4 µM,[15],77%
same,remaining activity at 0.2 µM,[16],91%
same,remaining activity at 4 µM,[16],82%
same,remaining activity at 0.2 µM,[17],99%
same,remaining activity at 4 µM,[17],91%
same,remaining activity at 0.2 µM,[18],84%
same,remaining activity at 4 µM,[18],83%
same,remaining activity at 0.2 µM,[19],98%
same,remaining activity at 4 µM,[19],8%
same,remaining activity at 0.2 µM,[20],122%
same,remaining activity at 4 µM,[20],99%
same,remaining activity at 0.2 µM,[21],109%
same,remaining activity at 4 µM,[21],82%
same,remaining activity at 0.2 µM,[22],89%
same,remaining activity at 4 µM,[22],8%
same,remaining activity at 0.2 µM,[23],113%
same,remaining activity at 4 µM,[23],109%
same,remaining activity at 0.2 µM,[24],53%
same,remaining activity at 4 µM,[24],52%
same,percentage of enzyme activity that remains,[25]; 0.2 μM Compound E,121%
same,percentage of enzyme activity that remains,[25]; 4 μM Compound E,107%
same,remaining activity at 0.2 µM,[26],132%
same,remaining activity at 4 µM,[26],115%
same,percentage of enzyme activity that remains,[27],125%
same,remaining activity at 0.2 µM,[28],107%
same,remaining activity at 4 µM,[28],105%
same,remaining activity at 0.2 µM,[29],92%
same,remaining activity at 4 µM,[29],92%
same,remaining activity at 0.2 µM,[30],100%
same,remaining activity at 4 µM,[30],110%
